Data on 16 compounds can be found in patent publication US8906930B2, “Quinazoline derivatives” (Merck Patent GmbH, priority 2009, dated 2014).

In the test the target is T1, Recombinant human HSP90α (Homo sapiens, UniProt P07900).
T1 construct: host or cells: E. coli
In words: HSP90 radioligand filter binding test ([3H]17AAG competition). The conditions noted are these: radioligand [3H]17AAG 0.08 μM; HSP90 1.5 μg/assay; 22° C., 30 min; read-out: HSP90 inhibition IC50. The source says: The binding of geldanamycin or 17-allylamino-17-demethoxygeldanamycin (17AAG) to HSP90 and competitive inhibition thereof can be utilised in order to determine the inhibitory activity of the compounds according to the invention (Carreras et al. 2003, Chiosis et al. 2002).
In the specific case, a radioligand filter binding test is used. The radioligand used here is tritium-labelled 17-allylaminogeldanamycin, [3H]17AAG. This filter binding test allows a targeted search for inhibitors which interfere with the ATP binding site.
Recombinant human HSP90α (E. coli expressed, 95% purity);
[3H]17AAG (17-allylaminogeldanamycin, [allylamino-2,3-^3H. Specific activity: 1.11×10^12 Bq/mmol (Moravek, MT-1717);
HEPES filter buffer (50 mM HEPES, pH 7.0, 5 mM MgCl2, BSA 0.01%) Multiscreen FB (1 μm) filter plate (Millipore, MAFBNOB 50).
The 96-well microtitre filter plates are firstly irrigated and coated with 0.1% of polyethylenimine.
The test is carried out under the following conditions:
Reaction temperature 22° C.
Reaction time: 30 min., shaking at 800 rpm
50 mM HEPES HCl, pH 7.0, 5 mM MgCl2, 0.01% (w/v) of BSA
At the end of the reaction, the supernatant in the filter plate is removed by suction with the aid of a vacuum manifold (Multiscreen Separation System, Millipore), and the filter is washed twice.
The filter plates are then measured in a beta counter (Microbeta, Wallac) with scintillator (Microscint 20, Packard).
“% of control” is determined from the “counts per minutes” values, and the IC-50 value of a compound is calculated therefrom.
`CCOC(=O)Cc1ccc2nc(N)nc(C(=O)N3Cc4ccccc4C3)c2c1` [Compound A1, Ethyl 2-[2-amino-4-(isoindoline-2-carbonyl)quinazolin-6-yl]acetate]: the IC50 fell in the range of 10 to 1000 nM. The result for `Nc1nc(C(=O)N2Cc3ccccc3C2)c2cc(CC(=O)O)ccc2n1` [Compound A2, 2-[2-Amino-4-(isoindoline-2-carbonyl)quinazolin-6-yl]acetic acid] reads 1000 to 10000 nM; that for `NC(=O)Cc1ccc2nc(N)nc(C(=O)N3Cc4ccccc4C3)c2c1` [Compound A3, 2-[2-amino-4-(isoindoline-2-carbonyl)quinazolin-6-yl]acetamide], 1000 to 10000 nM; that for `NC(=O)C(CCC(F)F)c1ccc2nc(N)nc(C(=O)N3Cc4ccccc4C3)c2c1` (stereo not shown) [Compound A4], 10 to 1000 nM.

`NC(=O)C1(c2ccc3nc(N)nc(C(=O)N4Cc5ccccc5C4)c3c2)CCC1` [Compound A5, 1-[2-amino-4-(isoindoline-2-carbonyl)quinazolin-6-yl]cyclobutane-carboxamide]: the IC50 fell in the range of 10 to 1000 nM. As to `CCNC(=O)Cc1ccc2nc(N)nc(C(=O)N3Cc4ccccc4C3)c2c1` [Compound A6, 2-[2-amino-4-(isoindoline-2-carbonyl)quinazolin-6-yl]-N-ethylacetamide], the IC50 fell in the range of 1000 to 10000 nM.

As to `CC(C)(C)NC(=O)Cc1ccc2nc(N)nc(C(=O)N3Cc4ccccc4C3)c2c1` [Compound A7, 2-[2-amino-4-(isoindoline-2-carbonyl)quinazolin-6-yl]-N-tert-butylacetamide], the IC50 lay within 1000 to 10000 nM. With `CCN(CC)C(=O)Cc1ccc2nc(N)nc(C(=O)N3Cc4ccccc4C3)c2c1` [Compound A8, 2-[2-amino-4-(isoindoline-2-carbonyl)quinazolin-6-yl]-N,N-diethylacetamide] the figure was 1000 to 10000 nM; with `CN(C)C(=O)Cc1ccc2nc(N)nc(C(=O)N3Cc4ccccc4C3)c2c1` [Compound A9, 2-[2-Amino-4-(isoindoline-2-carbonyl)quinazolin-6-yl]-N,N-dimethylacetamide], 1000 to 10000 nM. With `CCN(C)C(=O)Cc1ccc2nc(N)nc(C(=O)N3Cc4ccccc4C3)c2c1` [Compound A10, 2-[2-Amino-4-(isoindoline-2-carbonyl)quinazolin-6-yl]-N-ethyl-N-methylacetamide] the figure was 1000 to 10000 nM. With `CN(CCO)C(=O)Cc1ccc2nc(N)nc(C(=O)N3Cc4ccccc4C3)c2c1` [Compound A11, 2-[2-Amino-4-(isoindoline-2-carbonyl)quinazolin-6-yl]-N-(2-hydroxyethyl)-N-methylacetamide] the figure was 1000 to 10000 nM; with `CCN(CCO)C(=O)Cc1ccc2nc(N)nc(C(=O)N3Cc4ccccc4C3)c2c1` [Compound A12, 2-[2-Amino-4-(isoindoline-2-carbonyl)quinazolin-6-yl]-N-(2-hydroxyethyl)-N-ethylacetamide], 1000 to 10000 nM; with `Nc1nc(C(=O)N2Cc3ccccc3C2)c2cc(CC(=O)N3CCCC3)ccc2n1` [Compound A13, 2-[2-Amino-4-(isoindoline-2-carbonyl)quinazolin-6-yl]-1-pyrrolidin-1-ylethanone], 1000 to 10000 nM. For `CC1CCCN1C(=O)Cc1ccc2nc(N)nc(C(=O)N3Cc4ccccc4C3)c2c1` (stereo not shown) [Compound A14, 2-[2-Amino-4-(isoindoline-2-carbonyl)quinazolin-6-yl]-1-(2-methylpyrrolidin-1-yl)ethanone], the IC50 was in the range of 1000 to 10000 nM. The result for `CC1CCC(C)N1C(=O)Cc1ccc2nc(N)nc(C(=O)N3Cc4ccccc4C3)c2c1` (stereo not shown) [Compound A15, 2-[2-Amino-4-(isoindoline-2-carbonyl)quinazolin-6-yl]-1-(2,5-dimethylpyrrolidin-1-yl)ethanone] reads 1000 to 10000 nM. The result for `CNC(=O)Cc1ccc2nc(N)nc(C(=O)N3Cc4ccccc4C3)c2c1` [Compound A16, 2-[2-Amino-4-(isoindoline-2-carbonyl)quinazolin-6-yl]-N-methylacetamide] reads 1000 to 10000 nM.
